# pIC50: −log10 of the molar value.
# Test system: 636577-100-R-J1-PDC complex spheroid viability
# Experiment: Anticancer human tumor 636577-100-R-J1-PDC patient-derived endometrial adenocarcinoma cell line growth inhibition [GQUAD]
# Details: for pIC50: curve of first compound; for viability, T/C: stronger effect = lower value
# In short: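 Tumor cells were grown as complex spheroids with HUVEC endothelial cells and mesenchymal stem cells as stroma. G-quadruplex stabilizers were combined with targeted agents over half-log dilutions from near the clinical Cmax, or from 10 microM.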
# [1] = second compound 0.0316 µM, first compound 0.0316 µM
# [2] = second compound 0.0316 µM, first compound 0.1 µM
# [3] = second compound 0.0316 µM, first compound 0.316 µM
# [4] = second compound 0.0316 µM, first compound 1 µM
# [5] = second compound 0.0316 µM, first compound 3.16 µM
# [6] = second compound 0.0316 µM, first compound 10 µM
# [7] = second compound 0.1 µM, first compound 0.0316 µM
# [8] = second compound 0.1 µM, first compound 0.1 µM
# [9] = second compound 0.1 µM, first compound 0.316 µM
# [10] = second compound 0.1 µM, first compound 1 µM
# [11] = second compound 0.1 µM, first compound 3.16 µM
# [12] = second compound 0.1 µM, first compound 10 µM
# [13] = second compound 0.316 µM, first compound 0.0316 µM
# [14] = second compound 0.316 µM, first compound 0.1 µM
# [15] = second compound 0.316 µM, first compound 0.316 µM
# [16] = second compound 0.316 µM, first compound 1 µM
# [17] = second compound 0.316 µM, first compound 3.16 µM
# [18] = second compound 0.316 µM, first compound 10 µM
# [19] = second compound 1 µM, first compound 0.0316 µM
# [20] = second compound 1 µM, first compound 0.1 µM
# [21] = second compound 1 µM, first compound 0.316 µM
# [22] = second compound 1 µM, first compound 1 µM
# [23] = second compound 1 µM, first compound 3.16 µM
# [24] = second compound 1 µM, first compound 10 µM
# [25] = second compound 3.16 µM, first compound 0.0316 µM
# [26] = second compound 3.16 µM, first compound 0.1 µM
# [27] = second compound 3.16 µM, first compound 0.316 µM
# [28] = second compound 3.16 µM, first compound 1 µM
# [29] = second compound 3.16 µM, first compound 3.16 µM
# [30] = second compound 3.16 µM, first compound 10 µM
# [31] = second compound 10 µM, first compound 0.0316 µM
# [32] = second compound 10 µM, first compound 0.1 µM
# [33] = second compound 10 µM, first compound 0.316 µM
# [34] = second compound 10 µM, first compound 1 µM
# [35] = second compound 10 µM, first compound 3.16 µM
# [36] = second compound 10 µM, first compound 10 µM
# 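Note: viability read after seven days of drug exposure.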
# 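Throughout, for viability, T/C: luminescence signal used as a proxy for viable cells; 100% = DMSO vehicle control wells.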
smiles,measurement,setting,value
Cc1cccc(N(C)C(=O)C2C(O)CCN2c2nc(C)cc(C(F)(F)F)c2C#N)c1 (stereo not drawn) + Cc1cnc(CNC(=O)c2c(=O)c3ccc(N4CCCN(C)CC4)nc3n3c2sc2ccccc23)cn1,pIC50,second compound 0.0316 µM,> 7.50
same,pIC50,second compound 0.1 µM,> 7.50
same,pIC50,second compound 0.316 µM,> 7.50
same,pIC50,second compound 1 µM,> 7.50
same,pIC50,second compound 3.16 µM,> 7.50
same,pIC50,second compound 10 µM,> 7.50
same,"viability, T/C",[1],52.7%
same,"viability, T/C",[2],43.5%
same,"viability, T/C",[3],35%
same,"viability, T/C",[4],39.7%
same,"viability, T/C",[5],40.5%
same,"viability, T/C",[6],43.9%
same,"viability, T/C",[7],29.2%
same,"viability, T/C",[8],22.6%
same,"viability, T/C",[9],25.3%
same,"viability, T/C",[10],23.2%
same,"viability, T/C",[11],25.7%
same,"viability, T/C",[12],24.6%
same,"viability, T/C",[13],21.8%
same,"viability, T/C",[14],18.1%
same,"viability, T/C",[15],21.6%
same,"viability, T/C",[16],21.6%
same,"viability, T/C",[17],24.2%
same,"viability, T/C",[18],22.7%
same,"viability, T/C",[19],19.1%
same,"viability, T/C",[20],19.7%
same,"viability, T/C",[21],19.7%
same,"viability, T/C",[22],19.2%
same,"viability, T/C",[23],20.8%
same,"viability, T/C",[24],25.2%
same,"viability, T/C",[25],12.5%
same,"viability, T/C",[26],19.6%
same,"viability, T/C",[27],19.4%
same,"viability, T/C",[28],21%
same,"viability, T/C",[29],22.4%
same,"viability, T/C",[30],20.7%
same,"viability, T/C",[31],22.3%
same,"viability, T/C",[32],17.8%
same,"viability, T/C",[33],21%
same,"viability, T/C",[34],17.9%
same,"viability, T/C",[35],22.9%
same,"viability, T/C",[36],20.8%
COc1ncnc(C2CC2)c1-c1ncc2cnn(Cc3ccc(-c4nc(C(F)(F)F)cn4C(C)C)cc3)c2n1 + Cc1cnc(CNC(=O)c2c(=O)c3ccc(N4CCCN(C)CC4)nc3n3c2sc2ccccc23)cn1,pIC50,second compound 0.0316 µM,> 7.50
same,pIC50,second compound 0.1 µM,> 7.50
same,pIC50,second compound 0.316 µM,> 7.50
same,pIC50,second compound 1 µM,> 7.50
same,pIC50,second compound 3.16 µM,> 7.50
same,pIC50,second compound 10 µM,> 7.50
same,"viability, T/C",[1],37.8%
same,"viability, T/C",[2],36%
same,"viability, T/C",[3],42.7%
same,"viability, T/C",[4],32.1%
same,"viability, T/C",[5],37.7%
same,"viability, T/C",[6],31.4%
same,"viability, T/C",[7],29.7%
same,"viability, T/C",[8],26.2%
same,"viability, T/C",[9],29.4%
same,"viability, T/C",[10],25.2%
same,"viability, T/C",[11],28%
same,"viability, T/C",[12],27.4%
same,"viability, T/C",[13],24.2%
same,"viability, T/C",[14],24.7%
same,"viability, T/C",[15],25.8%
same,"viability, T/C",[16],21.6%
same,"viability, T/C",[17],25.2%
same,"viability, T/C",[18],24.5%
same,"viability, T/C",[19],19.5%
same,"viability, T/C",[20],18.5%
same,"viability, T/C",[21],22%
same,"viability, T/C",[22],20.4%
same,"viability, T/C",[23],25.4%
same,"viability, T/C",[24],22.6%
same,"viability, T/C",[25],16.3%
same,"viability, T/C",[26],21.4%
same,"viability, T/C",[27],22.7%
same,"viability, T/C",[28],17.4%
same,"viability, T/C",[29],25.9%
same,"viability, T/C",[30],19.2%
same,"viability, T/C",[31],20.8%
same,"viability, T/C",[32],20%
same,"viability, T/C",[33],23.5%
same,"viability, T/C",[34],18.3%
same,"viability, T/C",[35],23.7%
same,"viability, T/C",[36],22%
COc1cc(C2c3cc4c(cc3C(OC3OC5COC(C)OC5C(O)C3O)C3COC(=O)C23)OCO4)cc(OC)c1O (stereo not drawn) + Cc1[nH]c2ccc(F)cc2c1-c1nc2c3cccnc3c3ncccc3c2[nH]1,pIC50,second compound 0.0316 µM,7.06
same,pIC50,second compound 0.1 µM,7.16
same,pIC50,second compound 0.316 µM,7.07
same,pIC50,second compound 1 µM,7.23
same,pIC50,second compound 3.16 µM,> 7.50
same,pIC50,second compound 10 µM,7.43
same,"viability, T/C",[1],80.6%
same,"viability, T/C",[2],45.6%
same,"viability, T/C",[3],24.1%
same,"viability, T/C",[4],16.1%
same,"viability, T/C",[5],16%
same,"viability, T/C",[6],14%
same,"viability, T/C",[7],68.4%
same,"viability, T/C",[8],41.2%
same,"viability, T/C",[9],23.4%
same,"viability, T/C",[10],17.1%
same,"viability, T/C",[11],17.5%
same,"viability, T/C",[12],13.9%
same,"viability, T/C",[13],71.5%
same,"viability, T/C",[14],46.7%
same,"viability, T/C",[15],21.1%
same,"viability, T/C",[16],16.8%
same,"viability, T/C",[17],16.8%
same,"viability, T/C",[18],14.2%
same,"viability, T/C",[19],65.3%
same,"viability, T/C",[20],37.2%
same,"viability, T/C",[21],21.4%
same,"viability, T/C",[22],19.9%
same,"viability, T/C",[23],18%
same,"viability, T/C",[24],13.8%
same,"viability, T/C",[25],30%
same,"viability, T/C",[26],23.9%
same,"viability, T/C",[27],21%
same,"viability, T/C",[28],18.5%
same,"viability, T/C",[29],17.8%
same,"viability, T/C",[30],14.1%
same,"viability, T/C",[31],52.5%
same,"viability, T/C",[32],34.6%
same,"viability, T/C",[33],21.9%
same,"viability, T/C",[34],19.1%
same,"viability, T/C",[35],18.3%
same,"viability, T/C",[36],15.1%
CC1COCCN1c1cc(-c2ccnn2C)c2ccnc(-c3ccn[nH]3)c2n1 (stereo not drawn) + Cc1[nH]c2ccc(F)cc2c1-c1nc2c3cccnc3c3ncccc3c2[nH]1,pIC50,second compound 0.0316 µM,7.01
same,pIC50,second compound 0.1 µM,7.07
same,pIC50,second compound 0.316 µM,6.98
same,pIC50,second compound 1 µM,> 7.50
same,pIC50,second compound 3.16 µM,> 7.50
same,pIC50,second compound 10 µM,> 7.50
same,"viability, T/C",[1],89.7%
same,"viability, T/C",[2],48.1%
same,"viability, T/C",[3],26.9%
same,"viability, T/C",[4],10.8%
same,"viability, T/C",[5],7.12%
same,"viability, T/C",[6],4.03%
same,"viability, T/C",[7],59.4%
same,"viability, T/C",[8],49.1%
same,"viability, T/C",[9],23.9%
same,"viability, T/C",[10],11.4%
same,"viability, T/C",[11],8.62%
same,"viability, T/C",[12],4.31%
same,"viability, T/C",[13],59.4%
same,"viability, T/C",[14],52.9%
same,"viability, T/C",[15],25.8%
same,"viability, T/C",[16],14.5%
same,"viability, T/C",[17],8.77%
same,"viability, T/C",[18],4.31%
same,"viability, T/C",[19],39%
same,"viability, T/C",[20],32.5%
same,"viability, T/C",[21],23%
same,"viability, T/C",[22],15%
same,"viability, T/C",[23],8.69%
same,"viability, T/C",[24],3.56%
same,"viability, T/C",[25],16.9%
same,"viability, T/C",[26],18.7%
same,"viability, T/C",[27],15.5%
same,"viability, T/C",[28],9.23%
same,"viability, T/C",[29],6.94%
same,"viability, T/C",[30],3.78%
same,"viability, T/C",[31],41.6%
same,"viability, T/C",[32],24.7%
same,"viability, T/C",[33],20.6%
same,"viability, T/C",[34],13.2%
same,"viability, T/C",[35],8.7%
same,"viability, T/C",[36],4.88%
